Assay [1] concerns Mus musculus. Kind of assay: Anti-arthritic activity in CD-1 mouse assessed as inhibition of carrageenan-kaolin-induced arthritis at 200 mg/kg, po for 8 days relative to vehicle treated control. The class given is functional. The note with it: CD-1, 192 h.
Assay [2] concerns Mus musculus. In words: Anti-arthritic activity against carrageenan-kaolin-induced arthritis CD-1 mouse model assessed as decrease in spleen index at 200 mg/kg, po for 8 days relative to vehicle treated control. The assay is classed as functional. The note with it: CD-1, Spleen, 192 h.
Assay [3] deals with Mus musculus. In words: Antinociceptive activity in CD-1 mouse assessed as licking time during phase 1 at 50 to 200 mg/kg, po administered 1 hr prior to formalin-challenge. The class given is functional, organism-based.
The test system of assay [4] is Mus musculus. Kind of assay: Anti-arthritic activity in po dosed CD-1 mouse assessed as inhibition of carrageenan-kaolin-induced arthritis at treated for 8 days relative to vehicle treated control. The class given is functional, organism-based. As to conditions: TDE = time-dependent effect.
The subject of assay [5] is Mus musculus. Kind of assay: Antiinflammatory activity against carrageenan-kaolin-induced arthritis CD-1 mouse model assessed as decrease in PGE2 level in serum at 200 mg/kg, po for 8 days relative to vehicle treated control. The assay is classed as functional. As to conditions: CD-1, Serum, 192 h.
Assay [6] in a line: Antiinflammatory activity against Wistar rat erythrocytes assessed as inhibition of heat-induced hemolysis after 15 mins by membrane stabilizing activity assay. As to conditions: erythrocyte. The assay is classed as functional, cell-based.
The subject of assay [7] is Mus musculus. Kind of assay: Anti-arthritic activity against carrageenan-kaolin-induced arthritis CD-1 mouse model assessed as decrease in TNF-alpha level in serum at 200 mg/kg, po for 8 days relative to vehicle treated control. The assay is classed as functional.
Assay [8] deals with Mus musculus. In words: Antinociceptive activity against CD-1 mouse assessed as licking of hind paw or jumping at 100 mg/kg, po after 90 mins. The class given is functional. As to conditions: CD-1, 1.5 h.
Assay [9] deals with Mus musculus. Kind of assay: Anti-arthritic activity against carrageenan-kaolin-induced arthritis CD-1 mouse model assessed as decrease in IL-6 level in serum at 200 mg/kg, po for 8 days relative to vehicle treated control. The class given is functional.
The subject of assay [10] is Mus musculus. Kind of assay: Antiinflammatory activity in CD-1 mouse ear edema model assessed as reduction in TPA-induced edema size at 2 mg/ear, topically administered 30 mins prior to TPA-challenge measured after 6 hrs relative to control. The class given is functional.
Assay [11] deals with Mus musculus. Kind of assay: Anti-arthritic activity against carrageenan-kaolin-induced arthritis CD-1 mouse model assessed as decrease in IL-1beta level in serum at 200 mg/kg, po for 8 days relative to vehicle treated control. The class given is functional.
The test system of assay [12] is Mus musculus. Kind of assay: Antiinflammatory activity in CD-1 mouse ear edema model assessed as reduction in TPA-induced edema size at 200 mg/kg, po administered 30 mins prior to TPA-challenge for every 48 hrs for 10 days relative to vehicle treated control. The class given is functional. The note with it: CD-1, Ear.
For assay [13], the system named is Mus musculus. In words: Antiinflammatory activity against carrageenan-kaolin-induced arthritis CD-1 mouse model assessed as decrease in NO level in serum at 200 mg/kg, po for 8 days relative to vehicle treated control. The assay is classed as functional. The note with it: CD-1, Serum, 192 h.
In assay [14] the test system is Mus musculus. Kind of assay: Antiinflammatory activity in po dosed CD-1 mouse ear edema model assessed as reduction in TPA-induced edema size administered 30 mins prior to TPA-challenge for every 48 hrs for 10 days relative to vehicle treated control. The assay is classed as functional, organism-based.
In assay [15] the test system is Mus musculus. Kind of assay: Antiinflammatory activity in CD-1 mouse ear edema model assessed as reduction in TPA-induced edema size at 8 mg/kg, po administered 30 mins prior to TPA-challenge for every 48 hrs for 10 days relative to vehicle treated control. The assay is classed as functional. As to conditions: CD-1, Ear.
For assay [16], the system named is Mus musculus. Kind of assay: Anti-arthritic activity in CD-1 mouse assessed as inhibition of carrageenan-kaolin-induced arthritis at 1 mg/kg, po for 8 days relative to vehicle treated control. The class given is functional. The note with it: CD-1, 192 h.
In assay [17] the test system is Mus musculus. Kind of assay: Antiinflammatory activity against carrageenan-kaolin-induced arthritis CD-1 mouse model assessed as decrease in PGE2 level in serum at 1 mg/kg, po for 8 days relative to vehicle treated control. The assay is classed as functional. The note with it: CD-1, Serum, 192 h.
The subject of assay [18] is Mus musculus. In words: Anti-arthritic activity against carrageenan-kaolin-induced arthritis CD-1 mouse model assessed as decrease in IL-6 level in serum at 1 mg/kg, po for 8 days relative to vehicle treated control. The assay is classed as functional.
The subject of assay [19] is Mus musculus. In words: Anti-arthritic activity against carrageenan-kaolin-induced arthritis CD-1 mouse model assessed as decrease in TNF-alpha level in serum at 1 mg/kg, po for 8 days relative to vehicle treated control. The assay is classed as functional.
Assay [20] concerns Mus musculus. In words: Antiinflammatory activity against carrageenan-kaolin-induced arthritis CD-1 mouse model assessed as decrease in NO level in serum at 1 mg/kg, po for 8 days relative to vehicle treated control. The assay is classed as functional. The note with it: CD-1, Serum, 192 h.
Assay [21] has as its system Mus musculus. Kind of assay: Anti-arthritic activity against carrageenan-kaolin-induced arthritis CD-1 mouse model assessed as decrease in IL-1beta level in serum at 1 mg/kg, po for 8 days relative to vehicle treated control. The assay is classed as functional.
For assay [22], the system named is Mus musculus. In words: Anti-arthritic activity against carrageenan-kaolin-induced arthritis CD-1 mouse model assessed as decrease in spleen index at 1 mg/kg, po for 8 days relative to vehicle treated control. The assay is classed as functional. The note with it: CD-1, Spleen, 192 h.

The source of these data is ChEMBL document CHEMBL3400067, “Synthesis, antinociceptive and anti-inflammatory effects of porphyrins” (Bioorg Med Chem, 2015).

SMILES strings stand for the structures. The source made the active and inactive calls. The calls are words filed in the database; no cut-off is given here.

On to `Brc1ccc(-c2c3nc(c(-c4ccc(Br)cc4)c4ccc([nH]4)c(-c4ccc(Br)cc4)c4nc(c(-c5ccc(Br)cc5)c5ccc2[nH]5)C=C4)C=C3)cc1`, for which the inhibition in vivo at 200 mg/kg in the assay with Mus musculus [1] is 27%; in the assay on Mus musculus [2], 17%; with Mus musculus [5], 32%; with Mus musculus [12], 23%; in the assay on Mus musculus [13] it was 36%. The outcome in the assay with Mus musculus [3] was Active. For the same compound, the Activity result with Mus musculus [4] is “tde”. In addition, the EC50 in assay [6] was found to be 342 µM. Further, the “fold change (FC)” value with Mus musculus [7] turned out to be 1.1; in the assay with Mus musculus [9], 1.3; in the assay with Mus musculus [11] it was 1.6. In addition, the inhibition in vivo at 100 mg/kg in the assay on Mus musculus [8] stood at 32%. Further, the “inhibition (INH)” value in the assay on Mus musculus [10] is on record as 67%.
As to `Fc1ccc(-c2c3nc(c(-c4ccc(F)cc4)c4ccc([nH]4)c(-c4ccc(F)cc4)c4nc(c(-c5ccc(F)cc5)c5ccc2[nH]5)C=C4)C=C3)cc1`, the inhibition in vivo at 200 mg/kg with Mus musculus [1] is 30%; in the assay on Mus musculus [2] it was 20%; in the assay on Mus musculus [5], 41%; in the assay on Mus musculus [12], 36%; with Mus musculus [13] it was 44%. Also, the outcome in the assay on Mus musculus [3] was Active. For the same compound, the Activity entry in the assay with Mus musculus [4] is “tde”. Moreover, the concentration for a half-maximal effect (EC50) in assay [6] is 395 µM. In addition, the inhibition in vivo at 100 mg/kg in the assay with Mus musculus [8] was 20%. Further, the “inhibition (INH)” value with Mus musculus [10] is listed as 38%.
`COc1ccc2c(c1)c(CC(=O)O)c(C)n2C(=O)c1ccc(Cl)cc1` [INDOMETHACIN]: the inhibition entry with Mus musculus [14] is “Dose-dependent effect”. Further, in the assay on Mus musculus [15], the inhibition in vivo at 8 mg/kg is 55%. Moreover, in the assay with Mus musculus [10], the “inhibition (INH)” value came out at 76%.
On to `CN(Cc1cnc2nc(N)nc(N)c2n1)c1ccc(C(=O)N[C@@H](CCC(=O)O)C(=O)O)cc1` [METHOTREXATE], for which the inhibition in vivo at 1 mg/kg turned out to be 49% with Mus musculus [16], 66% in the assay with Mus musculus [17], 76% in the assay on Mus musculus [20] and 38% with Mus musculus [22]. Also, the Activity result in the assay on Mus musculus [4] is “tde”. In addition, the “fold change (FC)” value with Mus musculus [18] was found to be 2.8; with Mus musculus [19], 2.1; with Mus musculus [21], 2.
For the compound `COc1ccc2cc([C@H](C)C(=O)O)ccc2c1` [NAPROXEN], the half-maximal effective concentration (EC50) in [6] was 756 µM. Besides, the inhibition in vivo at 100 mg/kg in the assay with Mus musculus [8] is 36%.

Broadly, the inhibition in vivo is the drop in the measured response relative to a control, in per cent. By EC50 is commonly meant the concentration needed to bring the measured effect to its halfway point.
